# Laboratory results published in patent publication US7652018B2, “Imidazolidin-2-one derivatives useful as PR modulators” (Wyeth LLC, priority 2006, dated 2010).
# Test system: not given
# Experiment: not given
# Details: not given
row,Compound,melting point [°C]
1,"CC1(C)COC(=O)N1c1nc(-c2cccc(C#N)c2)cs1 [Example 3, 3-[2-(4,4-dimethyl-2-oxo-1,3-oxazolidin-3-yl)-1,3-thiazol-4-yl]benzonitrile]",181 to 183
2,"C[C@@H]1COC(=O)N1c1nc(-c2ccc(Br)cc2)cs1 [Example 1, (4R)-3-[4-(4-Bromophenyl)-1,3-thiazol-2-yl]-4-methyl-1,3-oxazolidin-2-one]",197 to 199
3,"CCC1(CC)COC(=O)N1c1nc(-c2ccc(C#N)cc2)cs1 [Example 2, 4-[2-(4,4-Diethyl-2-oxo-1,3-oxazolidin-3-yl)-1,3-thiazol-4-yl]benzonitrile]",145 to 147
4,"O=C1NCCN1c1nc(-c2ccc(Br)cc2)cs1 [Example 4, 1-[4-(4-Bromophenyl)-1,3-thiazol-2-yl]imidazolidin-2-one]",230 to 233

# Biological target: T1, progesterone receptor (Homo sapiens, UniProt P06401)
# T1 construct: determining a compound's effect on alkaline phosphatase activity in T47D cells; endogenous in cells; host or cells: T47D cells
# T1 sequence (P06401 1-933): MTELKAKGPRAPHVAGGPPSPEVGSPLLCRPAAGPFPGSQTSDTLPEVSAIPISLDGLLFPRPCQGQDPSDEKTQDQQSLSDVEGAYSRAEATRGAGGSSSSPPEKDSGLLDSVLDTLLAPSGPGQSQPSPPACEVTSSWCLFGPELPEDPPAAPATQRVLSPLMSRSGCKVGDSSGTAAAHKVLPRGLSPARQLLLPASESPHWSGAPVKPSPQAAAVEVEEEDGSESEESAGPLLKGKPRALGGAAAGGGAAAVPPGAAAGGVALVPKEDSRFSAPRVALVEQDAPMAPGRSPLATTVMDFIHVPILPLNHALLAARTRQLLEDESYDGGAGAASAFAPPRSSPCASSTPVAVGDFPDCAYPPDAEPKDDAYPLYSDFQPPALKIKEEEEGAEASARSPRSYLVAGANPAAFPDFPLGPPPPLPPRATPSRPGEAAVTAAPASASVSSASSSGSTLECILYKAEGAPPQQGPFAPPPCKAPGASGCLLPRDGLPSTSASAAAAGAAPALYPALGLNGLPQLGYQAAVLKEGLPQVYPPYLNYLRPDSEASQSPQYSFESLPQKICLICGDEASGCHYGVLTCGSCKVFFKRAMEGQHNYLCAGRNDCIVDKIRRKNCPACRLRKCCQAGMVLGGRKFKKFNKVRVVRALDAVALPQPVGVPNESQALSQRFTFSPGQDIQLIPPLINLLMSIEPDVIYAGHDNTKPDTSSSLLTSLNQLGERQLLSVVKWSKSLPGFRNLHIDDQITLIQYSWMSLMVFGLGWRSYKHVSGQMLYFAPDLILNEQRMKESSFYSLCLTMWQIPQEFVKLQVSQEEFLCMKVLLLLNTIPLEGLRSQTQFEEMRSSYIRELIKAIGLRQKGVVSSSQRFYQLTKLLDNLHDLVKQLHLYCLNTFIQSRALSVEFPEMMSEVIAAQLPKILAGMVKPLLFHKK
# Experiment: Alkaline phosphatase activity in T47D cells (progestin antagonist mode)
# Assay type: cell-based
# Details: in the presence of 1 nM progesterone, 24 h, read-out: T47D Alkaline Phosphatase Activity IC50 (nM) or % inhibition
# Experimental: (1) Effects of Progestins and Antiprogestins on Alkaline Phosphatase Activity in T47D Cells
# PURPOSE: To identify progestins or antiprogestins by determining a compound's effect on alkaline phosphatase activity in T47D cells.
# Culture medium: • DMEM:F12 (1:1) (GIBCO, BRL) supplemented with 5% (v/v) charcoal stripped fetal bovine serum (not heat-inactivated), 100 U/mL penicillin, 100 μg/mL streptomycin, and 2 mM the GlutaMax™ reagent (GIBCO, BRL).
# Alkaline phosphatase assay buffer: • I. 0.1M Tris-HCl, pH 9.8, containing 0.2% the Triton® X-100 reagent • II. 0.1M Tris-HCl, pH 9.8, containing 4 mM p-nitrophenyl phosphate (Sigma). B. Cell Culture and Treatment:
# Frozen T47D cells were thawed in a 37° C. water bath and diluted to 280,000 cells/mL in culture medium. To each well in a 96-well plate (Falcon, Becton Dickinson Labware), 180 μL of diluted cell suspension was added.
# Twenty μL of reference or test compounds diluted in the culture medium was then added to each well. When testing for progestin antagonist activity, reference antiprogestins or test compounds were added in the presence of 1 nM progesterone. The cells were incubated at 37° C. in a 5% CO2/humidified atmosphere for 24 h.
# NOTE: For high throughput screening, one concentration of each compound was tested at 0.3 μg/mL. Based on an average molecular weight of 300 g/mol for the compounds in the library, the concentration was approximately 1 μM. Subsequently, active compounds were tested in dose response assays to determine EC50 and IC50. C. Alkaline Phosphatase Enzyme Assay:
# At the end of treatment, the medium was removed from the plate. Fifty μL of assay buffer I was added to each well. The plates were shaken in a titer plate shaker for 15 min. Then 150 μL of assay buffer II was added to each well. Optical density measurements were taken at 5 min intervals for 30 min at a test wavelength of 405 nm.
# For reference and test compounds, a dose response curve was generated for dose (X-axis) vs. the rate of enzyme reaction (slope) (Y-axis). Square root-transformed data was used for analysis of variance and nonlinear dose response curve fitting for both agonist and antagonist modes. Huber weighting was used to down-weight the effects of outliers. EC50 or IC50 values were calculated from the retransformed values. JMP software (SAS Institute, Inc.) was used for both one-way analysis of variance and non-linear dose response analysis in both single dose and dose response studies.
# Progesterone and trimegestone were reference progestins and RU486 was the reference antiprogestin. All reference compounds were run in full dose response curves and the EC50 and IC50 values were calculated.
row,Compound,IC50 [nM]
1,"CN1CC(C)(C)N(c2nc(-c3ccc(C#N)cc3)cs2)C1=O [Example 8, 4-[2-(3,5,5-Trimethyl-2-oxoimidazolidin-1-yl)-1,3-thiazol-4-yl]benzonitrile]",35.4
2,"CC1(C)CN(Cc2ccccc2)C(=O)N1c1nc(-c2ccc(C#N)cc2)cs1 [Example 9, 4-[2-(3-Benzyl-5,5-dimethyl-2-oxoimidazolidin-1-yl)-1,3-thiazol-4-yl]benzonitrile]",77.9
3,"CN1CCN(c2nc(-c3ccc(Br)cc3)cs2)C1=O [Example 5, 1-[4-(4-Bromophenyl)-1,3-thiazol-2-yl]-3-methylimidazolidin-2-one]",733
4,"O=C1NCCN1c1nc(-c2ccc(Br)cc2)cs1 [Example 4, 1-[4-(4-Bromophenyl)-1,3-thiazol-2-yl]imidazolidin-2-one]",1070
